Paper PMC8778526, “N-Alkylmorpholines: Potent Dermal and Transdermal Skin Permeation Enhancers” (Pharmaceutics, 2021)
In brackets after ≈: the same amount, converted by molar mass. Where two headings read alike, the source gives them in different places.

How the values were obtained:
[1] = cited from earlier work
porcine skin [2] = experiment: ATR-FTIR of enhancer-treated skin; settings: skin treated 24 h with 1% enhancer in 60% PG
Procedure: ATR-FTIR is a powerful method to investigate the interactions of enhancers with SC lipids and proteins. […] Pure distilled water or 60% aqueous PG were applied as controls. […] IR spectra of the skin surface were recorded by an IR spectrometer (Nicolet iZ10, Thermo Scientific, Waltham, MA, USA), equipped with a single reflection […] ZnSe crystal (PIKE Technologies, Madison, WI, USA) at constant clamping pressure. […] Collected spectra were normalised, to reduce potential variations in the overall intensity of the spectra. Selected regions (amide I, amide II and CH2 stretching vibration bands) were fitted in Origin Pro (OriginLab, Wellesley Hills, MA, USA). The position, height and area of these selected peaks were compared among the particular spectra and the variances between peak characteristics were statistically evaluated by GraphPad Prism® software (GraphPad Software, Inc., La Jolla, CA, USA).

porcine skin [3] = experiment: In vitro permeation experiment, Franz-type diffusion cells; settings: for Jss, steady-state flux of the model drug: control, pure vehicle 60% PG without enhancer; for ER, enhancement ratio: flux with/without 1% enhancer
[4] = as above; settings: pig, pH 7.4
[5] = Effect of enhancers on drug solubility in the donor phase; settings: 32 °C, aqueous with cosolvent or surfactant or cyclodextrin, thermodynamic from solid
[6] = cited from earlier work; remark: listed apart in the source
porcine skin [7] = experiment: Entrapment of model drug in the skin after the permeation experiment; type: in vitro ADME; settings: control without enhancer
Procedure: At the end of the permeation experiment, the Franz diffusion cells were dismounted and the skin surface was thoroughly washed by distilled water and PBS. The skin area, which was exposed to the donor phase, was cut out, weighed and extracted by 5 mL of the respective mobile phase by shaking for 24 h at 32 °C on a laboratory shaker. The extracts were then filtered through 0.45 µm cellulose filters to eliminate skin residues and analysed by HPLC. Drug concentration in the skin, expressed as mg of model drugs per g of the skin tissue was calculated by dividing permeants’ amounts by the respective skin weights.

[8] = test system: human keratinocytes HaCaT; experiment: Cytotoxicity, CCK-8 viability assay; type: cell-based; settings: read-out: IC50, concentration causing 50% decrease in cell viability, 24 h incubation
Procedure: Cytotoxicity of the three best enhancers (Mo10, Mo12, Mo14) was evaluated on non-malignant spontaneously immortalised human keratinocytes HaCaT (Cell Lines Service, Eppelheim, Germany). The cell line was cultivated in Dulbecco’s Modified Eagle’s Medium (DMEM, Sigma Aldrich, St. Luis, MO, USA), supplemented with 10% Fetal Bovine Serum (Sigma Aldrich, St. Luis, MO, USA) in a Petri dish at 37 °C in a humidified atmosphere of 5% CO2. Cells were subcultured two times a week. For cytotoxicity experiments, 96-well plates were seeded with cells (at a density of 10,000 cells per well) in 100 μL of culture medium and incubated at 37 °C in a humidified atmosphere of 5% CO2 for 24 h.
The enhancers were dissolved in DMEM, left in an ultrasonic bath for 15 min and then kept at 37 °C overnight. On the next day, 10 μL of the particular enhancer solution was added to 100 μL of cell suspensions, to receive final enhancer concentrations in the range of 0.9–110 μM (concentrations determined according to our preliminary testing). The cells were incubated with tested compounds for 24 h. Then, the cell viability was determined, using the Cell Counting Kit-8 (CCK-8, Sigma Aldrich, St. Luis, MO, USA). The cells were incubated with 10 μL of the CCK-8 for 2 h. Thereafter, absorbance was measured at 450 nm, using the Infinite 200 PRO microplate reader (Tecan Austria GmbH, Austria). The mean optical density (absorbance) was used to calculate the percentage of cell viability as follows: percentage of cell viability=Atreatment−Ablank/Acontrol −Ablank×100 %, where A is the absorbance.

porcine skin [9] = experiment: Transepidermal water loss (TEWL) measurements, reversibility of enhancer effect; settings: for TEWL after the 2 h treatment: 1% enhancer in 60% PG applied 2 h; for TEWL after the 24 h treatment: 1% enhancer in 60% PG applied 24 h; for TEWL after 20 h: after 2 h treatment and enhancer removal; for TEWL within 24 h after the enhancers' removal: after 24 h treatment; for reversibility of the effect on the skin barrier: short-term 2 h application
Procedure: The reversibility of the enhancers’ effects was studied by evaluation of the difference in the water loss through the intact and enhancer-treated skin. […] The TEWL measurements were carried out according to established protocols. The skin samples were mounted into Franz diffusion cells, with the acceptor compartments filled with PBS pH 7.4 and placed in a water bath at 32 °C to hydrate and equilibrate. At first, the base TEWL values of untreated skin samples were measured. Each of the Franz diffusion cells was removed from the water bath, dried completely with compressed air and inserted into a holder. Then the TEWL probe was placed 1.0 cm above the skin surface. The measuring time was on average 80–100 s. […] The cells were then incubated at 32 °C. The donor samples were removed after 2 h or 24 h and the skin surface was washed with 0.5 mL of PBS, gently blotted dry and thoroughly dried with compressed air. After the enhancer was removed, TEWL was measured at predetermined intervals over 42 or 50 h.

porcine skin [10] = experiment: Skin electrical impedance measurements; settings: 1% enhancer, 48 h; control ratio set to 1
Procedure: For monitoring the skin integrity and characterisation of the permeation enhancers’ effect, the electrical impedance of each skin was measured, using an LCR 4080 multimeter (Voltcraft, Hirschau, Germany), set in parallel-equivalent mode with an alternating current frequency of 120 Hz. The measurements were carried out according to established protocols. The measurements were performed in the Franz diffusion cells. After the initial hydration and equilibration, the donor compartments were filled with 500 μL of PBS. One wire of the multimeter was placed in PBS in the acceptor, the other in the donor phase and the electrical impedance was determined. The next measurement was taken after the 48 h permeation experiment. When the donor samples ([…]) were removed, they were replaced with 500 μL PBS and the electrical impedance was re-measured. The electrical impedance ratio (EIR) was calculated for each cell as (2) EIR=EI1/EI2 where EI1 [kΩ] is electrical impedance before and EI2 [kΩ] after the 48 h treatment by the donor formulation.

[11] = ref Drugbank, ALOGPS; cited from earlier work
[12] = donor phase: 60% PG in distilled water without enhancer

For `CCCCCCCCCCCCN1CCCCCC1=O` [Azone, N-dodecylazacykloheptan-2-on, reference compound], which IC50 ([1]; ref 57) is on record?
The IC50 was 49 µM.

And the IC50 ([1]; ref 58)?
Its IC50 is 117 µM.

What about the “vasCH2, position of asymmetric CH2 stretching vibration” value (from here on “vasCH2, position”) (porcine skin [2]) of the same compound?
The value was 2921.84 ± 0.34 cm⁻¹.

What about the “vsCH2, position of symmetric CH2 stretching vibration” value (shortened to “vsCH2, position”) (porcine skin [2]) of the same compound?
The value was 2851.16 ± 0.21 * cm^−1.

For `CCCCCCCCCCCCOC(=O)CCCCCN(C)C` [DDAK], which IC50 ([1]; ref 29) is on record?
The IC50 was 76 µM.

Which “Jss, steady-state flux of the model drug” value (porcine skin [3]) does the source give for `O=C(O)Cc1ccccc1Nc1c(Cl)cccc1Cl` [DF, diclofenac sodium] here?
The value was 5.74 ± 1.04 µg·cm^−2·h^−1.

And the Papp at 48 h [4]?
The Papp at 48 h was 0.0275 ×10⁻⁶ cm/s.

What about the solubility at 48 h [5, 12] of the same compound?
The solubility at 48 h was 57800 ± 2550 µg/mL.

What about the “solubility in PBS” value ([6]; ref 27) of the same compound?
Its value is 5150 µg/mL.

What about the “amount of the model drug in the skin” value (porcine skin [7]) of the same compound?
The value was 380.10 ± 50.52 μg·gskin^−1.

Which results are given for `COc1ccc2c(c1)c(CC(=O)O)c(C)n2C(=O)c1ccc(Cl)cc1` [IND, indomethacin]?
Jss, steady-state flux of the model drug (porcine skin [3]): 0.51 ± 0.09 µg·cm^−2·h^−1; Papp at 48 h [4]: 0.104 ×10⁻⁶ cm/s; solubility at 48 h [5, 12]: 950 ± 510 µg/mL; solubility in PBS ([6]; ref 26): 650 µg/mL (≈ 1.82 mM); amount of the model drug in the skin (porcine skin [7]): 32.43 ± 6.98 μg·gskin^−1

What does the source list for `CCCCN1CC(CO)OC(OC)C1` (stereo not shown) [Mo4]?
ER, enhancement ratio (porcine skin [3]; permeant DF): 1.04; ER, enhancement ratio (porcine skin [3]; permeant IND): 5.78; ER, enhancement ratio (porcine skin [3]; permeant TH): 1.38

For `CCCCCCCCN1CC(CO)OC(OC)C1` (stereo not shown) [Mo8], which “ER, enhancement ratio” value (porcine skin [3]; permeant DF) is on record?
The value was 1.17.

And the “ER, enhancement ratio” value (porcine skin [3]; permeant IND)?
The value was 6.28.

What about the “ER, enhancement ratio” value (porcine skin [3]; permeant TH) of the same compound?
The value was 4.63.

For `CCCCCCCCCCN1CC(CO)OC(OC)C1` (stereo not shown) [Mo10], which “ER, enhancement ratio” value (porcine skin [3]; permeant DF) is on record?
The value was 1.43.

What about the “ER, enhancement ratio” value (porcine skin [3]; permeant IND) of the same compound?
Its value is 7.80.

And the “ER, enhancement ratio” value (porcine skin [3]; permeant TH)?
Its value is 9.87.

And the IC50 [8]?
Its IC50 is 94 ± 1.5 µM.

And the “vasCH2, position” value (porcine skin [2])?
The value was 2921.91 ± 0.40 cm⁻¹.

And the “vsCH2, position” value (porcine skin [2])?
The value was 2852.58 ± 0.71 * cm^−1.

And the “TEWL after the 2 h treatment” value (porcine skin [9])?
The value was 11.7 ± 0.8 g·m^−2·h^−1.

And the “TEWL after the 24 h treatment” value (porcine skin [9])?
The value was 15.6 ± 2.2 g·m^−2·h^−1.

And the “TEWL after 20 h” value (porcine skin [9])?
The value was 4.8 ± 0.1 g·m^−2·h^−1.

What about the “TEWL within 24 h after the enhancers' removal” value (porcine skin [9]) of the same compound?
Its value is 4.3 ± 0.7 g·m^−2·h^−1.

What about the “reversibility of the effect on the skin barrier” value (porcine skin [9]) of the same compound?
Its value is “reversible”.

What about the “EIR, electrical impedance ratio (before/after treatment)” value (porcine skin [10]) of the same compound?
The value was 1.66 ± 0.19.

Which results are given for `CCCCCCCCCCCCN1CC(CO)OC(OC)C1` (stereo not shown) [Mo12]?
ER, enhancement ratio (porcine skin [3]; permeant DF): 1.81; ER, enhancement ratio (porcine skin [3]; permeant IND): 10.01; ER, enhancement ratio (porcine skin [3]; permeant TH): 14.53; IC50 [8]: 41 ± 0.8 µM; vasCH2, position of asymmetric CH2 stretching vibration (porcine skin [2]): 2921.14 ± 0.61 cm⁻¹; vsCH2, position of symmetric CH2 stretching vibration (porcine skin [2]): 2851.56 ± 0.23 * cm^−1; TEWL after the 2 h treatment (porcine skin [9]): 8.2 ± 0.3 g·m^−2·h^−1; TEWL after the 24 h treatment (porcine skin [9]): 18.5 ± 1.2 g·m^−2·h^−1; TEWL after 20 h (porcine skin [9]): 3.2 ± 0.3 g·m^−2·h^−1; TEWL within 24 h after the enhancers' removal (porcine skin [9]): 9.5 ± 0.1 g·m^−2·h^−1; reversibility of the effect on the skin barrier (porcine skin [9]): reversible; EIR, electrical impedance ratio (before/after treatment) (porcine skin [10]): 1.60 ± 0.13

Which “ER, enhancement ratio” value (porcine skin [3]; permeant DF) does the source give for `CCCCCCCCCCCCCCN1CC(CO)OC(OC)C1` (stereo not shown) [Mo14] here?
The value was 2.58.

And the “ER, enhancement ratio” value (porcine skin [3]; permeant IND)?
Its value is 9.10.

And the “ER, enhancement ratio” value (porcine skin [3]; permeant TH)?
Its value is 8.67.

What about the IC50 [8] of the same compound?
The IC50 was 41.5 ± 1.5 µM.

And the “vasCH2, position” value (porcine skin [2])?
The value was 2919.48 ± 0.42 cm⁻¹.

What about the “vsCH2, position” value (porcine skin [2]) of the same compound?
The value was 2850.74 ± 0.14 cm⁻¹.

And the “TEWL after the 2 h treatment” value (porcine skin [9])?
Its value is 9.0 ± 0.4 g·m^−2·h^−1.

And the “TEWL after the 24 h treatment” value (porcine skin [9])?
Its value is 18.1 ± 0.8 g·m^−2·h^−1.

What about the “TEWL after 20 h” value (porcine skin [9]) of the same compound?
Its value is 4.6 ± 0.7 g·m^−2·h^−1.

What about the “TEWL within 24 h after the enhancers' removal” value (porcine skin [9]) of the same compound?
The value was 4.7 ± 0.1 g·m^−2·h^−1.

And the “reversibility of the effect on the skin barrier” value (porcine skin [9])?
The value was “reversible”.

What about the “EIR, electrical impedance ratio (before/after treatment)” value (porcine skin [10]) of the same compound?
The value was 1.64 ± 0.14.

With `CCCCCCCCC=CCCCCCCCCN1CC(CO)OC(OC)C1` (stereo not shown) [Mo18/1] as the compound, how does the “ER, enhancement ratio” value (porcine skin [3]; permeant DF) read?
Its value is 1.94.

What about the “ER, enhancement ratio” value (porcine skin [3]; permeant IND) of the same compound?
The value was 3.94.

What about the “ER, enhancement ratio” value (porcine skin [3]; permeant TH) of the same compound?
The value was 5.01.

What about the “vasCH2, position” value (porcine skin [2]) of the same compound?
Its value is 2920.35 ± 0.36 cm⁻¹.

What about the “vsCH2, position” value (porcine skin [2]) of the same compound?
Its value is 2850.76 ± 0.15 cm⁻¹.

With `CCCCCCCCCCCCCCCCCCN1CC(CO)OC(OC)C1` (stereo not shown) [Mo18] as the compound, how does the “ER, enhancement ratio” value (porcine skin [3]; permeant DF) read?
The value was 1.14.

What about the “ER, enhancement ratio” value (porcine skin [3]; permeant IND) of the same compound?
The value was 1.95.

And the “ER, enhancement ratio” value (porcine skin [3]; permeant TH)?
The value was 3.06.

Which results are given for `Cn1c(=O)c2[nH]cnc2n(C)c1=O` [TH, theophylline]?
logP [11]: −0.02; solubility at 48 h [5]: 20000 ± 620 µg/mL; solubility in PBS ([6]; ref 25): 7650 µg/mL (≈ 42.5 mM)

With `CCCCCCCCCCCCOC(=O)CCCCCN.CCCCCCCCCCCCOC(=O)CCCCCNC(=O)O` [Transkarbam 12] as the compound, how does the IC50 ([1]; ref 29) read?
Its IC50 is 21 µM.

With dodecyl amino glucoside as the compound, how does the IC50 ([1]; ref 34) read?
The IC50 was 24 µM.
